Results from patent US9522888B2, “Substituted bicyclic compounds” (BRISTOL-MYERS SQUIBB COMPANY, priority 2014, dated 2016).
pEC50, pIC50: −log10 of the molar value.

Experiments:
[1] = biological target: S1P1 (membranes prepared from S1P1/CHO cells) (Homo sapiens (Human), UniProt P21453); test: Receptor [35S] GTPγS binding assay (S1P1 GTPγS); type: biochemical; details: phosphate examples; read-out: S1P1 GTPγS
Description: (§1) Receptor [^35S] GTPγS Binding Assays: (S1P1 GTPγS/S1P3 GTPγS)
Compounds were loaded in a 384 Falcon v-bottom plate (0.5 μl/well in a 11 point, 3-fold dilution). Membranes prepared from S1P1/CHO cells or EDG3-Gal5-bla HEK293T cells (EDG3 equivalent S1P3) were added to the compound plate (40 μl/well, final protein 3 μg/well) with MULTIDROP®. [^35S] GTP (1250 Ci/mmol, Perkin Elmer) was diluted in assay buffer: 20 mM HEPES, pH7.5, 10 mM MgCl2, 150 mM NaCl, 1 mM EGTA (ethylene glycol tetraacetic acid), 1 mM DTT (Dithiothreitol), 10 μM GDP, 0.1% fatty acid free BSA, and 10 μg/ml Saponin to 0.4 nM. 40 μl of the [^35S] GTP solution was added to the compound plate with a final concentration of 0.2 nM. The reaction was kept at room temperature for 45 min. At the end of incubation, all the mixtures in the compound plate were transferred to Millipore 384-well FB filter plates via the VELOCITY11® Vprep liquid handler. The filter plate was washed with water 4 times by using the manifold Embla plate washer and dried at 60° C. for 45 min. MicroScint 20 scintillation fluid (30 μl) was added to each well for counting on the Packard TOPCOUNT®. […]

[2] = biological target: S1P3 (membranes prepared from EDG3-Gal5-bla HEK293T cells) (Homo sapiens (Human), UniProt Q99500); test: Receptor [35S] GTPγS binding assay (S1P3 GTPγS); type: biochemical; details: phosphate examples; read-out: S1P3 GTPγS
Sequence of S1P3 (membranes prepared from EDG3-Gal5-bla HEK293T cells) (Q99500 whole entry): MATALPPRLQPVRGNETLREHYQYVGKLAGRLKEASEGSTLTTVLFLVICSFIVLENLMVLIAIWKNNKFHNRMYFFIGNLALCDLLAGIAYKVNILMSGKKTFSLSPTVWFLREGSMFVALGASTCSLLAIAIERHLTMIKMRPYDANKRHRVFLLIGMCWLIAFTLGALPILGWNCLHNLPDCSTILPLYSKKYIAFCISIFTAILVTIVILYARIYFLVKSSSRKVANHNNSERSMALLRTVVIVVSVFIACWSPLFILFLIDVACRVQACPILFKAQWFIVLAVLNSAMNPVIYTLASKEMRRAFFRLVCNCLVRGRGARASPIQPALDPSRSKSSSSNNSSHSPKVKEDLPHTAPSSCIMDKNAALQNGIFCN
Description: as §1
Compounds were loaded in a 384 Falcon v-bottom plate (0.5 μl/well in a 11 point, 3-fold dilution). Membranes prepared from S1P1/CHO cells or EDG3-Gal5-bla HEK293T cells (EDG3 equivalent S1P3) were added to the compound plate (40 μl/well, final protein 3 μg/well) with MULTIDROP®. [^35S] GTP (1250 Ci/mmol, Perkin Elmer) was diluted in assay buffer: 20 mM HEPES, pH7.5, 10 mM MgCl2, 150 mM NaCl, 1 mM EGTA (ethylene glycol tetraacetic acid), 1 mM DTT (Dithiothreitol), 10 μM GDP, 0.1% fatty acid free BSA, and 10 μg/ml Saponin to 0.4 nM. 40 μl of the [^35S] GTP solution was added to the compound plate with a final concentration of 0.2 nM. The reaction was kept at room temperature for 45 min. At the end of incubation, all the mixtures in the compound plate were transferred to Millipore 384-well FB filter plates via the VELOCITY11® Vprep liquid handler. The filter plate was washed with water 4 times by using the manifold Embla plate washer and dried at 60° C. for 45 min. MicroScint 20 scintillation fluid (30 μl) was added to each well for counting on the Packard TOPCOUNT®.
A smaller value for GTPγS S1P1 EC50 value indicated greater activity for the compound in the GTPγS S1P1 binding assay. A larger value for the GTPγS S1P3 EC50 value indicated less activity in the GTPγS S1P3 binding assay. […] Thus the compounds of the present invention may be used in treating, preventing, or curing various S1P1 receptor-related conditions while reducing or minimizing the side effects due to S1P3 activity. The selectivity of the compounds of the present invention indicate their potential use in treating, preventing, or curing autoimmune and inflammatory diseases such as multiple sclerosis, rheumatoid arthritis, inflammatory bowel disease, lupus, psoriasis, or vascular diseases, while reducing or minimizing possible side effects due to S1P3 activity. Other potential uses of the compounds of the present invention include minimizing or reducing rejection of transplanted organs, while reducing or minimizing side effects due to S1P3 activity.

hS1P1/CHO cells = hS1P1/CHO cells (Homo sapiens (Human), UniProt P21453); test: hS1P1 ERK phosphorylation (S1P1 pERK); type: cell-based; details: phosphate examples
Sequence of hS1P1/CHO cells (P21453 whole entry): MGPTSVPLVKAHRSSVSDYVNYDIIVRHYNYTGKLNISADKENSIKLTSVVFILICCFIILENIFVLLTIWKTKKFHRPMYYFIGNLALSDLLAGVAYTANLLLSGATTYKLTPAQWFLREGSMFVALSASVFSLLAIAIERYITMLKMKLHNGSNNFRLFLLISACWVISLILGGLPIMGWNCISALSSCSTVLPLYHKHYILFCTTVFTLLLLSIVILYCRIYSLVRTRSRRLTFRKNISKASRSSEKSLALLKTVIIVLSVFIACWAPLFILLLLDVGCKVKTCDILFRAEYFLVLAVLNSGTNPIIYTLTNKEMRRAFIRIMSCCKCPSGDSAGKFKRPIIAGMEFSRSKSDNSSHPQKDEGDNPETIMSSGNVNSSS
Description: hS1P1 ERK Phosphorylation (S1P1 pERK)
hS1P1/CHO cells were plated into BD Amine 384-well plates the day before the assay. On the day of the assay, growth medium was removed and replaced with serum-free medium (Ham's F-12 Invitrogen) and incubated for 2 hours. Test compounds pre-diluted in HBSS (Gibco)/20 mM HEPES (Gibco) were transferred to the cell plates and incubated for 7 minutes at 37° C. Cells were lysed in lysis buffer (Perkin Elmer) and phospho-ERK was measured using the SureFire pERK kit (Perkin Elmer) as described by the manufacturer. Data was plotted as percentage activation of the test compound relative to the efficacy of 10 μM S1P.

human S1P1 = human S1P1 (Homo sapiens (Human), UniProt P21453); test: S1P1 binding assay (33P-S1P radioligand competition, CHO cell membranes); details: phosphate examples; read-out: S1P1 Binding
Sequence of human S1P1 (P21453 whole entry): as above
Description: Membranes were prepared from CHO cells expressing human S1P1. Cells pellets (1×10^9 cells/pellet) were suspended in buffer containing 20 mM HEPES (4-(2-hydroxyethyl)-1-piperazineethanesulfonic acid), pH 7.5, 50 mM NaCl, 2 mM EDTA (Ethylenediaminetetraacetic acid) and Protease Inhibitor cocktail (Roche), and disrupted on ice using the Polytron homogenizer. The homogenate was centrifuged at 20,000 rpm (48,000 g) and the supernatant was discarded. The membrane pellets were resuspended in buffer containing 50 mM HEPES, pH 7.5, 100 mM NaCl, 1 mM MgCl2, 2 mM EDTA and stored in aliquots at −80° C. after protein concentration determination.

Sequence of S1P1 (membranes prepared from S1P1/CHO cells) (P21453 whole entry): as above

`CCCCCOC[C@@H]1COc2cc([C@H]3CC[C@](N)(COP(=O)(O)O)C3)ccc2O1` [Example 412, ((1R,3S)-1-amino-3-((R)-2-((pentyloxy)methyl)-2,3-dihydrobenzo[b][1,4]dioxin-6-yl)cyclopentyl)methyl dihydrogen phosphate] was tested, and the pEC50 [1] was > 8.00, the pEC50 [2] was < 6.20 and the pEC50 (hS1P1/CHO cells) was > 8.00. For the same molecule, the pIC50 (human S1P1) was > 8.00.

In the case of `Cn1cc(COC[C@@H]2CCc3cc([C@H]4CC[C@](N)(COP(=O)(O)O)C4)ccc3C2)cn1` [compound 471], the pEC50 [2] was < 6.20, the pEC50 (hS1P1/CHO cells) was 7.00 to 8.00 and the pIC50 (human S1P1) was 6.00 to 7.00.

For `N[C@]1(COP(=O)(O)O)CC[C@H](c2ccc3c(c2)CC[C@@H](COCc2ccsc2)C3)C1` [compound 473], the pEC50 [2] was < 6.20, the pEC50 (hS1P1/CHO cells) was 7.00 to 8.00 and the pIC50 (human S1P1) was > 8.00.

With `Cc1cc(COC[C@@H]2CCc3cc([C@H]4CC[C@](N)(COP(=O)(O)O)C4)ccc3C2)sc1C` [compound 488] the pEC50 [1] was 7.00 to 8.00, the pEC50 (hS1P1/CHO cells) was > 8.00 and the pIC50 (human S1P1) was > 8.00.

With `CCCSC[C@H]1CCc2cc([C@H]3CC[C@](N)(COP(=O)(O)O)C3)ccc2C1` [compound 502] the pEC50 [1] was 7.00 to 8.00, the pEC50 (hS1P1/CHO cells) was > 8.00 and the pIC50 (human S1P1) was > 8.00.

`N[C@]1(COP(=O)(O)O)CC[C@H](c2ccc3c(c2)CC[C@H](c2ccncc2)C3)C1` [compound 574] was tested, and the pEC50 [2] was < 6.20, the pEC50 (hS1P1/CHO cells) was 7.00 to 8.00 and the pIC50 (human S1P1) was 6.00 to 7.00.

In the case of `N[C@@]1(COP(=O)(O)O)CC[C@@H](c2ccc3c(c2)CC[C@@H](OCCOc2ccccc2)C3)C1` [compound 583], the pEC50 [1] was > 8.00, the pEC50 [2] was < 7.00 and the pEC50 (hS1P1/CHO cells) was > 8.00.

`N[C@@]1(COP(=O)(O)O)CCC(c2ccc3c(c2)CN(CCCc2ccccc2)C3=O)C1` (stereo partly shown) [compound 613] was tested, and the pEC50 [2] was < 6.20, the pEC50 (hS1P1/CHO cells) was 6.00 to 7.00 and the pIC50 (human S1P1) was 5.00 to 6.00.

For `CCCCNC(=O)OC1CCc2cc([C@H]3CC[C@@](N)(COP(=O)(O)O)C3)ccc2C1` (stereo partly shown) [compound 625], the pEC50 [1] was 6.00 to 7.00, the pEC50 [2] was < 6.20 and the pEC50 (hS1P1/CHO cells) was 7.00 to 8.00.

In the case of `CCCCN(C)C(=O)OC1CCc2cc([C@H]3CC[C@](N)(COP(=O)(O)O)C3)ccc2C1` (stereo partly shown) [compound 628], the pEC50 [1] was > 8.00, the pEC50 [2] was < 6.20 and the pEC50 (hS1P1/CHO cells) was > 8.00.

For `CCCCC1CCCC2(CCc3cc([C@H]4CC[C@](N)(COP(=O)(O)O)C4)ccc3C2)O1` (stereo partly shown) [compound 630], the pEC50 [2] was < 6.20, the pEC50 (hS1P1/CHO cells) was 6.00 to 7.00 and the pIC50 (human S1P1) was > 8.00.

`N[C@]1(COP(=O)(O)O)CC[C@H](c2ccc3c(c2)CCC2(CCCCO2)C3)C1` (stereo partly shown) [compound 634] was tested, and the pEC50 [2] was < 6.20, the pEC50 (hS1P1/CHO cells) was 7.00 to 8.00 and the pIC50 (human S1P1) was 7.00 to 8.00.

In the case of `CCCC/C=C/C1=Cc2ccc([C@H]3CC[C@](N)(COP(=O)(O)O)C3)cc2CC1` [compound 647], the pEC50 [1] was 6.00 to 7.00, the pEC50 [2] was < 6.20 and the pEC50 (hS1P1/CHO cells) was 7.00 to 8.00.

`CCCCC=C[C@H]1CCc2cc([C@H]3CC[C@](N)(COP(=O)(O)O)C3)ccc2C1` [compound 649] showed a pEC50 [1] of 6.00 to 7.00, a pEC50 (hS1P1/CHO cells) of 7.00 to 8.00 and a pIC50 (human S1P1) of 7.00 to 8.00.
